Reference: patent publication US20240300923A1, “IRAK4 Inhibitors” (ASTRAZENECA AB, priority 2022, published 2024)

Columns and labels:
[1] = Human plasma protein binding, equilibrium dialysis (RED device); type: in vitro ADME; details: for fraction unbound at 18 h, 5 μM: human, plasma, pH 7.4
Excerpt: Plasma protein binding may have important implications on the pharmacokinetic behaviour of drugs. This is especially true for highly bound drugs, where the fraction unbound (fu) drug in plasma is an important parameter in the interpretation of in-vivo experiments. Traditionally, there are several different techniques used to determine the extent of drug binding to plasma proteins and equilibrium dialysis is probably the most common.
This method describes our current automated equilibrium dialysis assay in human plasma using the RED (Rapid Equilibrium Dialysis) Device and Hamilton sample handling system, described in WernevikJ et al. (2020) “A Fully Integrated Assay Panel for Early Drug Metabolism and Pharmacokinetics Profiling” Assay. Drug. Dev. Technol 18:157-179; DOI 10.1089/adt.2020.970.
The assay generally runs over three days including delivery of results. The pooled compounds are diluted in plasma to 5 μM and added to the inner chamber of the RED device and a phosphate buffer (pH 7.4) to the surrounding chamber to allow equilibrium dialysis over a semipermeable membrane with a molecular weight cut off at 8 kDa. The 5 μM solutions are also used to establish compound stability in plasma and recovery (mass balance) in the RED devices, with sampling performed at both the 0 and 18 h timepoints. Low recovery indicates binding to the dialysis equipment or solubility issues.
After dialysis for 18 hours, plasma and buffer samples are prepared for analysis by liquid chromatography and mass spectrometry (LC/MSMS). A seven-point calibration curve in plasma, ranging from 1.4 nM to 7 μM, is used to quantify the samples. All samples including the calibration curve, also contain an internal standard (IS) to allow for normalization between variations in injection volume in the UPLC-MS/MS instrumentation.
Three quality controls (QCs) are used in each run. Warfarin with low fu (fu mean ˜1%) is used as a control in each pool. Propranolol (˜30%) and Metoprolol (˜90%) are placed randomly in each run. The controls are monitored in the “Manhattan tool” (Winiwarter et al. (2015) “Time dependent analysis of assay comparability: a novel approach to understand intra-and inter-site variability over time” J. Comput. Aided Mol. Des. 29:795-807; DOI10.1007/s10822-015-9836-5), that defines the acceptance criteria for the QCs as 2.58×standard deviation.

[2] = target: T1, IRAK4 (Homo sapiens (Human), UniProt Q9NWZ3); experiment: IRAK4 phosphorylation cell assay (IL-1β-stimulated Karpas-299 cells); type: cell-based; details: IRAK4 auto-phosphorylation (pIRAK4 Thr345/Ser346) in IL-1β-stimulated Karpas-299 cells; geometric mean of at least 2 experiments
T1 sequence (Q9NWZ3 whole entry): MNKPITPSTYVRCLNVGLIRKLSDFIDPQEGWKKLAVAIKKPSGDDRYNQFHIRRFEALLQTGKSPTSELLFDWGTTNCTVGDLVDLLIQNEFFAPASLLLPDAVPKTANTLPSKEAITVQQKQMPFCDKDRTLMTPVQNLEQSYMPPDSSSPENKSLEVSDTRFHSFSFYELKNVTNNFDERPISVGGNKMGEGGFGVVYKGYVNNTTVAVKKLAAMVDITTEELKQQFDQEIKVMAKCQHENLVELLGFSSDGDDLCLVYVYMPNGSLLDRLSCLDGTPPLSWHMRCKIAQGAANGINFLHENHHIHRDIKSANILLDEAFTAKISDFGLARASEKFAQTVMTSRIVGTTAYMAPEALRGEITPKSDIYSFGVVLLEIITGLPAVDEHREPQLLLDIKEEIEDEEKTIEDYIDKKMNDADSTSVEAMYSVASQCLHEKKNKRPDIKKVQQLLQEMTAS
Procedure: IRAK4 Phosphorylation Cell Assay
The activation of IRAK4 by TLR or IL-1R ligands leads to IRAK4 auto-phosphorylation, which can be prevented by IRAK4 kinase inhibitors. The effect of IRAK4 inhibitor compounds on IRAK4 auto-phosphorylation was assessed in IL-1β-stimulated Karpas-299 cells as a measurement of cellular potency. Karpas-299 cells were cultured in RPMI 1640 (Gibco 61870-010) containing 10% FBS (Gibco #10270). Cells were plated at 2×10^4 cells per well in poly-D-lysine coated 384 well plates (Corning #356663) to which compounds had been added at various concentrations (10 point half log dose response with a final top concentration of 30 μM) using an Echo 655 (Labcyte Inc). Cells were centrifuged (250 g, 4 mins), incubated at 37° C. for 1 h, then stimulated with 22.7 ng/mL recombinant IL-1β (R&D Systems, #201-LB-025) at 37° C. for 10 mins, followed by fixation in 4% paraformaldehyde for 20 mins and permeabilization in ice-cold 70% MeOH in PBS for 30 mins. Cells were washed twice with phosphate-buffered saline (PBS) on a BlueWasher (BlueCatBio) then blocked with PBS containing 10% FBS for 20 mins. Blocking solution was removed with a BlueWasher and cells were stained with anti-pIRAK4 (Thr345/Ser346) (CST, #11927, 1:400) in blocking buffer with 0.05% Tween-20 for 1 h, then washed twice with PBS containing 0.05% Tween-20 on a BlueWasher, followed by staining with a Alexa 647-conjugated secondary anti-rabbit IgG antibody (CST, #4414, 1:2,000) and Hoechst 33342 (Sigma, 1:2,000) in blocking buffer with 0.05% Tween-20 for 30 mins. Finally, the cells were washed twice with PBS containing 0.05% Tween-20 and imaged on an ImageXpress Micro (Molecular Devices) with a 10× air objective using the appropriate filters. Images were analysed in Columbus (PerkinElmer) and the fluorescence intensity per cell from the secondary antibody was quantified. The quantified data were analysed in Genedata Screener 19 (Genedata AG). […] IC50 values are the geometric mean of at least 2 experiments.

[3] = target: T1, IRAK4; experiment: IRAK4 enzyme assay (mass spectrometry readout); type: biochemical; details: human recombinant IRAK4 0.2 nM, 3 mM ATP; geometric mean of at least 2 experiments
Procedure: Potency of IRAK4 Inhibitor Compounds in IRAK4 Enzyme Assay
The inhibitory activity of compounds against IRAK4 were determined in an enzymatic assay using mass spectrometry readout. Ten point half-log compound concentration response curves, with a top concentration of 1 μM or 10 μM, were generated from 10 mM stocks of compound solubilized in DMSO using an Echo 655 (Labcyte Inc) and added to 384 well assay plates (Greiner #781280). To the assay plates, 10 μL of human recombinant IRAK4 protein (Life Technologies #PV4002) diluted to a final concentration of 0.2 nM in assay buffer (50 mM Tris-HCl pH 7.4, 10 mM MgCl, 5 mM glutathione, 0.01% BSA, 3 mM ATP) was added. The enzyme was incubated with the compounds at room temperature for 15 minutes before a peptide substrate ([…], Innovagen custom synthesis, 10 mM in DMSO) was added to each well to a final concentration of 10 μM using an Echo 655 (Labcyte Inc). After two hours at room temperature, the reaction was stopped with 65 μL of 0.4% formic acid (Merck #33015). The unphosphorylated and phosphorylated peptide were measured by LC-MS/MS on a Waters TQ-S mass spectrometer. Peaks were integrated using the TargetLynx software and the ratios between phosphorylated and unphosphorylated peptides were calculated. Curves were fitted and compound potencies determined in Genedata Screener 19 (Genedata AG). IC50 values are the geometric mean of at least 2 experiments.

Structure (SMILES)	fraction unbound at 18 h, 5 μM [1]	IC50 [2] [nM]	IC50 [3] [nM]	Hu PPB (% free) ([1]; human plasma, 5 μM, dialysis 18 hours, single experiment or average of two or more)
CC(=O)CC(c1ccccc1)c1c(O)c2ccccc2oc1=O (stereo not drawn) [Warfarin]	~0.01	–	–	–
COCCc1ccc(OCC(O)CNC(C)C)cc1 (stereo not drawn) [Metoprolol]	~0.9	–	–	–
CC(C)NCC(O)COc1cccc2ccccc12 (stereo not drawn) [Propranolol]	~0.3	–	–	–
COc1cc2nn([C@H]3CC[C@@]4(CC3)COC(=O)N4C)cc2cc1C(=O)Nc1cccn(C)c1=O [Example 20, 6-Methoxy-N-(1-methyl-2-oxo-1,2-dihydropyridin-3-yl)-2-((5s,8s)-1-methyl-2-oxo-3-oxa-1-azaspiro[4.5]decan-8-yl)-2H-indazole-5-carboxamide]	–	128	5.6	14
